Assay: xn = mol fraction of the nth substance listed

ClC(Cl)(Cl)Cl + CCCCO
Settings	viscosity [mPa·s]
298.15 K, 101 kPa, x2 = 0.0326	0.903
298.15 K, 101 kPa, x2 = 0.0846	0.92
298.15 K, 101 kPa, x2 = 0.1	0.918
298.15 K, 101 kPa, x2 = 0.19	0.975
298.15 K, 101 kPa, x2 = 0.2668	1.058
298.15 K, 101 kPa, x2 = 0.27	1.046
298.15 K, 101 kPa, x2 = 0.34	1.135
298.15 K, 101 kPa, x2 = 0.425	1.293
298.15 K, 101 kPa, x2 = 0.4916	1.42
298.15 K, 101 kPa, x2 = 0.58	1.56
298.15 K, 101 kPa, x2 = 0.629	1.778
298.15 K, 101 kPa, x2 = 0.67	1.794
298.15 K, 101 kPa, x2 = 0.6978	1.88
298.15 K, 101 kPa, x2 = 0.76	1.979
298.15 K, 101 kPa, x2 = 0.7789	2.078
298.15 K, 101 kPa, x2 = 0.836	2.291
298.15 K, 101 kPa, x2 = 0.89	2.325
298.15 K, 101.32 kPa, x2 = 0.09917	0.919
298.15 K, 101.32 kPa, x2 = 0.1956	0.972
298.15 K, 101.32 kPa, x2 = 0.3011	1.074
298.15 K, 101.32 kPa, x2 = 0.3746	1.163
298.15 K, 101.32 kPa, x2 = 0.5434	1.464
298.15 K, 101.32 kPa, x2 = 0.5847	1.552
298.15 K, 101.32 kPa, x2 = 0.687	1.806
298.15 K, 101.32 kPa, x2 = 0.7888	2.065
298.15 K, 101.32 kPa, x2 = 0.8923	2.329
303.15 K, 101 kPa, x2 = 0.0559	0.8424
303.15 K, 101 kPa, x2 = 0.057	0.8423
303.15 K, 101 kPa, x2 = 0.1084	0.8543
303.15 K, 101 kPa, x2 = 0.1137	0.856
303.15 K, 101 kPa, x2 = 0.1851	0.8882
303.15 K, 101 kPa, x2 = 0.1887	0.8907
303.15 K, 101 kPa, x2 = 0.2871	0.9679
303.15 K, 101 kPa, x2 = 0.3823	1.076
303.15 K, 101 kPa, x2 = 0.4772	1.215
303.15 K, 101 kPa, x2 = 0.5086	1.268
303.15 K, 101 kPa, x2 = 0.6468	1.527
303.15 K, 101 kPa, x2 = 0.6792	1.593
303.15 K, 101 kPa, x2 = 0.7591	1.764
303.15 K, 101 kPa, x2 = 0.8416	1.943
303.15 K, 101 kPa, x2 = 0.893	2.054
303.15 K, 101 kPa, x2 = 0.9516	2.176
303.15 K, 101 kPa, x2 = 0.9563	2.186
303.15 K, 101.3 kPa, x1 = 0.7915	1.005
308.15 K, 101 kPa, x2 = 0.0846	0.801
308.15 K, 101 kPa, x2 = 0.2668	0.902
308.15 K, 101 kPa, x2 = 0.629	1.372
308.15 K, 101 kPa, x2 = 0.6978	1.487
308.15 K, 101 kPa, x2 = 0.7789	1.647
308.15 K, 101 kPa, x2 = 0.836	1.76
318.15 K, 101 kPa, x2 = 0.0326	0.684
318.15 K, 101 kPa, x2 = 0.0846	0.692
318.15 K, 101 kPa, x2 = 0.2668	0.773
318.15 K, 101 kPa, x2 = 0.425	0.883
318.15 K, 101 kPa, x2 = 0.4916	0.95
318.15 K, 101 kPa, x2 = 0.629	1.116
318.15 K, 101 kPa, x2 = 0.6978	1.189
318.15 K, 101 kPa, x2 = 0.7789	1.313
318.15 K, 101 kPa, x2 = 0.836	1.416

CCCC(C)=O + C1CCCC1
viscosity [mPa·s], 101.33 kPa
Settings	293.15 K	298.15 K	303.15 K
x2 = 0.0411	0.49	0.463	0.44
x2 = 0.0966	0.481	0.455	0.431
x2 = 0.1985	0.471	0.445	0.422
x2 = 0.3214	0.458	0.433	0.41
x2 = 0.3876	0.452	0.428	0.406
x2 = 0.5026	0.443	0.419	0.398
x2 = 0.6097	0.436	0.414	0.392
x2 = 0.6934	0.433	0.41	0.39
x2 = 0.7996	0.429	0.407	0.387
x2 = 0.9054	0.429	0.406	0.386
x2 = 0.9515	0.433	0.41	0.389

CCCC(C)=O + c1ccccc1
303.15 K, 101.32 kPa
Settings	viscosity [mPa·s]
x2 = 0.1304	0.469
x2 = 0.2771	0.475
x2 = 0.3294	0.484
x2 = 0.4869	0.499
x2 = 0.6257	0.515
x2 = 0.6946	0.522
x2 = 0.7707	0.532
x2 = 0.9042	0.553

CCN(CC)CC + CCc1ccccc1
303.15 K, 101 kPa
Settings	viscosity [mPa·s]
x1 = 0.01075	0.5914
x1 = 0.02054	0.5873
x1 = 0.03021	0.5822
x1 = 0.04405	0.5755
x1 = 0.05034	0.5715
x1 = 0.06324	0.5666
x1 = 0.07098	0.5623
x1 = 0.0794	0.5569
x1 = 0.09408	0.5505
x1 = 0.1003	0.5476

ClC(Cl)(Cl)Cl + CCCCOC(C)=O
101.33 kPa
Settings	viscosity [mPa·s]
303.15 K, x1 = 0.1942	0.664
303.15 K, x1 = 0.3145	0.685
303.15 K, x1 = 0.4207	0.702
303.15 K, x1 = 0.5252	0.72
303.15 K, x1 = 0.5754	0.732
303.15 K, x1 = 0.7049	0.759
303.15 K, x1 = 0.7537	0.774
303.15 K, x1 = 0.8196	0.788
303.15 K, x1 = 0.8765	0.803
303.15 K, x1 = 0.9415	0.823
313.15 K, x1 = 0.2041	0.587
313.15 K, x1 = 0.4028	0.619
313.15 K, x1 = 0.5068	0.634
313.15 K, x1 = 0.604	0.651
313.15 K, x1 = 0.8058	0.695
